Results as given in patent publication US20200197385A1, “THERAPEUTIC AGENT FOR CANCER CONTAINING AXL INHIBITOR AS ACTIVE INGREDIENT” (ONO PHARMACEUTICAL CO., LTD., priority 2017, published 2020).

Key:
[1] = test system: human acute myeloid leukemia cell line CMK-11-5; assay: In vitro combined use test, Cell Counting Kit-8; type: cell-based; details: 72 hours
Protocol: A human acute myeloid leukemia cell line CMK-11-5 was prepared in an RPMI medium containing 10% FBS (10% FBS-RPMI medium) at about 30000 cells/mL, and seeded in a 96 well plate at 50 μL/well. To this, 10% FBS-RPMI medium containing ABBV-075 having 4 times higher concentration than the final concentration was added at 25 μL/well. Furthermore, 10% FBS-RPMI medium containing the compound A having 4 times higher concentration than the final concentration was added at 25 μL/well (final volume: 100 μL/well DMSO concentration: 0.2%). The plate was incubated at 37° C. in humidified air including 5% CO2 for 72 hours. After culturing, absorbance at 450 nm of a formazan product, proportional to the number of living cells, was measured using Cell Counting Kit-8. Percentage (%) of absorbance at 450 nm of each compound-treated group with respect to absorbance at 450 nm of the vehicle group was calculated.

[2] = test system: mouse pancreatic cancer cell line Pan02 orthotopic implantation model; assay: Antitumor action, orthotopic transplantation model, survival; type: in vivo; details: Pan02 orthotopic implantation mice; compound A 20 mg/kg/day via the diet; gemcitabine 60 mg/kg i.p. twice a week; Day 0 to Day 95
Protocol: For the compound A, mouse feed CRF-1 containing 0.013% compound A was manufactured by Oriental Yeast Co., Ltd. so as to be administered in 20 mg/kg/day as administration via the diet. Gemcitabine was obtained from Wako Pure Chemical Industries, Ltd. C57/BL6 mouse pancreatic cancer cell line Pan02 was transplanted into the pancreas of the same type syngeneic mice (C57/BL6, female, 6-week old (Charles River Laboratories Japan, Inc.)) to produce Pan02 orthotopic implantation mice. On day 7 after transplantation, based on the body weight, the mice were assigned to four groups, i.e., a vehicle group, a gemcitabine group, compound A group, a combined use group of gemcitabine+compound A, and the compound A (each n=8 to 9). The day on which group assignment was carried out was defined as Day 0. To the vehicle group and the compound A group, PBS (10 mL/kg, twice a week) was intraperitoneally administered. To the gemcitabine group and a combined use group of gemcitabine+compound A, gemcitabine (60 mg/10 mL/kg, twice a week) was administered by intraperitoneal administration. To the compound A group and the combined use group of gemcitabine+compound A, CRF-1 containing 0.013% compound A was fed from Day 0. From Day 0 to Day 95, the survival time of each mouse in each group was evaluated. […]

[3] = test system: leukemia cells in bone marrow derived from patient with acute myeloid leukemia; assay: Proliferation test (CFDA-SE), bone marrow sample of acute myeloid leukemia patient, compound A combined with anticancer drugs; type: cell-based, human; details: 96 hours, Ci<1 synergistic action
Protocol: (§1) Initial evaluation: Bone marrow samples were obtained from an adult acute myeloid leukemia patient. […] Furthermore, to evaluate the initial survival rate of cells, Annexin V was added to the above-mentioned combination of MAb.
Proliferation test: Proliferation was measured using a CFDA-SE coloring agent. A coloring agent which had been prepared in advance was placed in 15-mL tube including bone marrow enough to obtain about 6000 cells/well of living leukemia cells. Thereafter, they were diluted with the medium such that the total volume became 1 mL. After the resultant product was mixed well by vortex, the mixture was incubated on a rotator at room temperature with light shielded for 10 minutes. Then, the tube was filled with cool RPMI1640 including 10% FBS (medium 2), and incubated on ice for 5 minutes to stop the reaction. Thereafter, the cells were washed with the medium 2 twice. For the final re-suspension before plating and incubation, the medium 1 replenished with a cytokine cocktail was used. […] The plate containing the sample was incubated at 37° C. in humidified air including 5% CO2 for 96 hours. In order to prepare a sample for analysis, erythrocytes were lysed after completion of incubation, and then, the sample was stained with the best combination of Mab and Annexin V to identify the leukemia cells in the sample. Finally, the plate was analyzed by ExviTech (registered trademark) platform.
Data analysis: Synergistic analysis was carried out by calculating Combination Index (Ci) as described in Cancer Research, Vol. 70, No. 2, pp. 440-446, 2010. […] Note here that the meaning of the Ci value is regarded as follows.
(§2) Ci<1: synergistic action, Ci=1: additive action, Ci>1: antagonistic action

[4] = test system: human acute lymphatic leukemia cell line CCRF-HSB-2; assay: In vitro combined use test, Cell Titer-Glo; type: cell-based; details: 72 hours
Protocol: A human acute lymphatic leukemia cell line CCRF-HSB-2 was prepared in an IMDM medium containing 10% FBS (10% FBS-IMDM medium) at about 200000 cells/mL, and seeded in a 96 well plate at 50 μL/well. […] The plate was incubated at 37° C. in humidified air including 5% CO2 for 72 hours. After culturing, relative luminescence unit (RLU), proportional to cellular endogenous ATP amount, was measured by Cell Titer-Glo Luminescent Cell Viability Assay (registered trademark). Percentage (%) of RLU of each compound-treated group relative to RLU of the vehicle group was measured.

[5] = test system: leukemia cells in bone marrow derived from patient with acute myeloid leukemia; assay: Reduction test, bone marrow sample of acute myeloid leukemia patient, compound A combined with anticancer drugs; type: cell-based, human; details: 96 hours, Ci<1 synergistic action
Protocol: as §1
The plate containing the sample was incubated at 37° C. in humidified air including 5% CO2 for 96 hours. In order to prepare a sample for analysis, erythrocytes were lysed after completion of incubation, and then, the sample was stained with the best combination of Mab and Annexin V to identify the leukemia cells in the sample. Finally, the plate was analyzed by ExviTech (registered trademark) platform.
Note here that the meaning of the Ci value is regarded as follows.
as §2

CCS(=O)(=O)Nc1ccc(Oc2ccc(F)cc2F)c(-c2cn(C)c(=O)c3[nH]ccc23)c1 [ABBV-075]
absorbance at 450 nm in combined use with compound A compared with single use of each agent [1]: lowered

COc1cc2nccc(Oc3ccc(NC(=O)c4cc5c(n(-c6ccccc6)c4=O)CCCC5=O)nc3)c2cc1OC [Compound A, N-{5-[(6,7-dimethoxy-4-quinolinyl)oxy]-2-pyridinyl}-2,5-dioxo-1-phenyl-1,2,5,6,7,8-hexahydro-3-quinolinecarboxamide]
Median value of survival days [2]: 54 days

CC[C@@H]1C(=O)N(C)c2cnc(Nc3ccc(C(=O)N[C@H]4CC[C@H](N5CCN(CC6CC6)CC5)CC4)cc3OC)nc2N1C(C)C [Volasertib, volasertib]
Ci median value in combined use with compound A [3]: 0.830

Nc1ccn([C@@H]2O[C@H](CO)[C@@H](O)C2(F)F)c(=O)n1 [Gemcitabine, gemcitabine]
Median value of survival days [2]: 67 days

CO[C@@H]1[C@H](N(C)C(=O)c2ccccc2)C[C@H]2O[C@]1(C)n1c3ccccc3c3c4c(c5c6ccccc6n2c5c31)C(=O)NC4 [Midostaurin, midostaurin]
Ci median value in combined use with compound A [3]: 0.673

COc1cccc2c1C(=O)c1c(O)c3c(c(O)c1C2=O)C[C@@](O)(C(C)=O)C[C@@H]3O[C@H]1C[C@H](N)[C@H](O)[C@H](C)O1 [Daunorubicin, daunorubicin]
Ci median value in combined use with compound A [4]: 0.936 | RLU in combined use with compound A compared with single use of each agent [4]: lowered

CCCCc1nc2cc(/C=C/C(=O)NO)ccc2n1CCN(CC)CC [Plasinostat, plasinostat]
Ci median value in combined use with compound A [5]: 0.440

C[C@@H]1C[C@H]2[C@@H]3CCC4=CC(=O)C=C[C@]4(C)[C@@]3(F)[C@@H](O)C[C@]2(C)[C@@]1(O)C(=O)CO [Dexamethasone, dexamethasone]
Ci median value in combined use with compound A [4]: 0.589

CCc1nc(C(N)=O)c(Nc2ccc(N3CCC(N4CCN(C)CC4)CC3)c(OC)c2)nc1NC1CCOCC1 [Gilteritinib, gilteritinib]
Ci median value in combined use with compound A [3]: 0.495

COc1cc(C(=O)O)ccc1NC(=O)[C@@H]1N[C@@H](CC(C)(C)C)[C@](C#N)(c2ccc(Cl)cc2F)[C@H]1c1cccc(Cl)c1F [Idasanutlin, idasanutlin]
Ci median value in combined use with compound A [5]: 0.719

Nc1ccn([C@@H]2O[C@H](CO)[C@@H](O)[C@@H]2O)c(=O)n1 [Cytarabine, cytarabine]
Ci median value in combined use with compound A [4]: 0.696 | RLU in combined use with compound A compared with single use of each agent [4]: lowered
